The values that follow come from patent publication US9980943B2, “Methods of treating muscular dystrophy” (BOARD OF REGENTS OF THE NEVADA SYSTEM OF HIGHER EDUCATION, …, priority 2013, dated 2018).

What all share (type): cell-based, mouse
The subject of assay [1] is α7 integrin (LacZ reporter in α7βgal+/− myoblasts). As to the kind of experiment: Myoblast α7+/LacZ integrin FDG assay (Burkin assay in myoblasts, 96-well). Conditions: for Burkin Assay in Myoblasts, value relative to DMSO: SU9516 analogs, N=3-6; for Burkin Assay in Myoblasts, value relative to DMSO / Burkin Assay in Myoblasts, signal relative to DMSO: 96-well; for Burkin Assay in Myoblasts, signal relative to DMSO: α7+/LacZ myoblasts.

Assay [2] has as its system α7 integrin (LacZ reporter in α7+/LacZ myotubes). As to the kind of experiment: Myotube α7 integrin FDG assay (Burkin assay in myotubes, 96-well). Conditions: for Burkin Assay in Myotubes, value relative to DMSO: SU9516 analogs, 96-well, N=3-6.
For assay [3], the system named is β-galactosidase in CMV-LacZ C2C12 myoblasts. In words: CMV-LacZ secondary screen in C2C12 myoblasts (β-Gal stabilizing assay). The settings on record: for CMV-LACZ in Myoblasts, value relative to DMSO: SU9516 analogs, C2C12 CMV-LacZ, N=2; for CMV-LACZ in Myoblasts (β-galactosidase activity relative to DMSO): CMV-LacZ C2C12 myoblasts. The method, boiled down: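 Dose-response runs at 0.5–40 μM (0.5, 1, 5, 10, 20, 40 μM; N=2 per point) used a clonal C2C12 line carrying CMV-LacZ. Cells were assayed as myoblasts or as differentiated myotubes, and β-galactosidase levels were read with the FDG fluorogenic substrate.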

Assay [4] deals with β-galactosidase in CMV-LacZ C2C12 myotubes. As to the kind of experiment: CMV-LacZ secondary screen in C2C12 myotubes (β-Gal stabilizing assay). The settings on record: for CMV-LACZ in Myotubes, value relative to DMSO: SU9516 analogs, C2C12 CMV-LacZ, N=2; for CMV-LACZ in Myotubes, signal relative to DMSO: C2C12 CMV-LacZ myotubes, fold relative to DMSO. The gist of the method:
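β-gal stabilization was measured in C2C12 myoblasts or myotubes stably transfected with a CMV-driven LacZ construct, using the FDG β-gal assay. Compounds were tested in dose-response at 0.5, 1, 5, 10, 20 and 40 μM, with two replicates per point.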

[5] abbreviates: Mus musculus, Myoblast, 48 h, read-out: Burkin Assay in Myoblasts, value relative to DMSO.

The structures appear in SMILES notation.

`Cc1ccc2c(c1)/C(=C/c1ccccc1C)C(=O)N2` [MLS001202402-01]: the “Burkin Assay in Myoblasts, value relative to DMSO” value in assay [1] (0.5 uM) is 1.051; in assay [1] (1 uM) it was 0.9034; in assay [1] (5 uM) it was 0.9255; in assay [1] (10 uM), 1.08; in assay [1] (20 uM), 0.6481; in assay [1] (40 uM), 0.325. Besides, the “Burkin Assay in Myotubes, value relative to DMSO” value in assay [2] (0.5 uM) was 0.9628; in assay [2] (1 uM), 0.8962; in assay [2] (5 uM) it was 0.9629; in assay [2] (10 uM), 1.0295; in assay [2] (20 uM) it was 0.5907; in assay [2] (40 uM) it was 0.3717. Moreover, the “CMV-LACZ in Myoblasts, value relative to DMSO” value was 1.0546 in assay [3] (0.5 uM); 1.0106 in assay [3] (1 uM); 0.8771 in assay [3] (5 uM); 0.7598 in assay [3] (10 uM); 0.7204 in assay [3] (20 uM); 0.4819 in assay [3] (40 uM). For the same compound, the “CMV-LACZ in Myotubes, value relative to DMSO” value worked out at 0.9200 in assay [4] (0.5 uM); 0.8695 in assay [4] (1 uM); 0.9237 in assay [4] (5 uM); 0.8015 in assay [4] (10 uM); 0.8847 in assay [4] (20 uM); 0.8129 in assay [4] (40 uM).

As to `COc1cccc(C(=O)COc2ccc3ccc(=O)oc3c2)c1` [MLS000677675-01], the “Burkin Assay in Myoblasts, signal relative to DMSO” value in assay [1] (0.5 uM) is listed as 1.093; in assay [1] (1 uM), 1.061; in assay [1] (5 uM), 0.9873; in assay [1] (10 uM), 1.028; in assay [1] (20 uM) it was 1.004; in assay [1] (40 uM), 0.9554. Moreover, the “Burkin Assay in Myotubes, α7 integrin LacZ reporter signal relative to DMSO” value in assay [2] (0.5 uM) was found to be 1.278; in assay [2] (1 uM), 1.205; in assay [2] (5 uM), 1.081; in assay [2] (10 uM) it was 1.044; in assay [2] (20 uM) it was 0.6675; in assay [2] (40 uM) it was 0.6873. For the same compound, the “CMV-LACZ in Myoblasts (β-galactosidase activity relative to DMSO)” value in assay [3] (0.5 uM) turned out to be 1.0343; in assay [3] (1 uM), 1.1214; in assay [3] (5 uM) it was 0.9905; in assay [3] (10 uM), 1.0373; in assay [3] (20 uM), 1.0763; in assay [3] (40 uM), 1.1578. Also, the “CMV-LACZ in Myotubes, signal relative to DMSO” value was 0.8619 in assay [4] (0.5 uM); 0.9962 in assay [4] (1 uM); 1.0578 in assay [4] (5 uM); 1.0091 in assay [4] (10 uM); 0.9918 in assay [4] (20 uM); 1.2494 in assay [4] (40 uM).

As for `CSc1ccc(S(=O)(=O)NCc2ccccc2)cc1` [MLS000531177-01], the “Burkin Assay in Myoblasts, signal relative to DMSO” value turned out to be 0.8826 in assay [1] (0.5 uM); 0.923 in assay [1] (1 uM); 1.067 in assay [1] (5 uM); 1.625 in assay [1] (10 uM); 1.014 in assay [1] (20 uM); 0.8008 in assay [1] (40 uM). Further, the “Burkin Assay in Myotubes, α7 integrin LacZ reporter signal relative to DMSO” value in assay [2] (0.5 uM) turned out to be 0.8259; in assay [2] (1 uM), 0.7329; in assay [2] (5 uM), 1.051; in assay [2] (10 uM), 1.163; in assay [2] (20 uM), 0.8007; in assay [2] (40 uM), 0.9005. Also, the “CMV-LACZ in Myoblasts (β-galactosidase activity relative to DMSO)” value in assay [3] (0.5 uM) was 1.0785; in assay [3] (1 uM), 1.5065; in assay [3] (5 uM), 1.0150; in assay [3] (10 uM) it was 0.8958; in assay [3] (20 uM) it was 1.2952; in assay [3] (40 uM), 0.9422. Also, the “CMV-LACZ in Myotubes, signal relative to DMSO” value in assay [4] (0.5 uM) was 1.1989; in assay [4] (1 uM) it was 1.0411; in assay [4] (5 uM), 0.8757; in assay [4] (10 uM), 0.8917; in assay [4] (20 uM) it was 0.9244; in assay [4] (40 uM) it was 1.1522.

On to `Cc1ccc(NS(=O)(=O)c2cccc(C(=O)O)c2)cc1S(=O)(=O)N1CCOCC1` [MLS000393966-01], for which the “Burkin Assay in Myoblasts, signal relative to DMSO” value is 0.9495 in assay [1] (0.5 uM); 0.9626 in assay [1] (1 uM); 1.793 in assay [1] (5 uM); 1.076 in assay [1] (10 uM); 0.9904 in assay [1] (20 uM); 0.965 in assay [1] (40 uM). In addition, the “Burkin Assay in Myotubes, α7 integrin LacZ reporter signal relative to DMSO” value in assay [2] (0.5 uM) came to 0.8547; in assay [2] (1 uM), 0.8436; in assay [2] (5 uM), 1.304; in assay [2] (10 uM) it was 0.9546; in assay [2] (20 uM), 1.233; in assay [2] (40 uM) it was 1.015. In addition, the “CMV-LACZ in Myoblasts (β-galactosidase activity relative to DMSO)” value in assay [3] (0.5 uM) amounted to 0.9249; in assay [3] (1 uM), 1.0625; in assay [3] (5 uM) it was 1.1744; in assay [3] (10 uM), 0.8087; in assay [3] (20 uM) it was 1.0411; in assay [3] (40 uM), 0.9156. In addition, the “CMV-LACZ in Myotubes, signal relative to DMSO” value in assay [4] (0.5 uM) is 0.9358; in assay [4] (1 uM), 1.3516; in assay [4] (5 uM), 0.8958; in assay [4] (10 uM), 1.1877; in assay [4] (20 uM), 1.0378; in assay [4] (40 uM), 1.1167.

For the compound `COc1ccccc1/C=C1\C(=O)Nc2ccccc21` [MLS001202634-01], in assay [1] (setting [5]), the fold induction at 0.5 µM was 1.21. For the same compound, the fold induction at 1 µM in assay [1] (setting [5]) was found to be 1.1. Moreover, the fold induction at 5 µM in assay [1] (setting [5]) was 1.14. Also, in assay [1] (setting [5]), the fold induction at 10 µM was 1.31. The fold induction at 20 µM in assay [1] (setting [5]) was 0.994. Moreover, in assay [1] (setting [5]), the fold induction at 40 µM was 0.931. Further, the “Burkin Assay in Myotubes, value relative to DMSO” value in assay [2] (0.5 uM) stood at 0.9928; in assay [2] (1 uM), 1.1156; in assay [2] (5 uM), 0.9675; in assay [2] (10 uM) it was 1.139; in assay [2] (20 uM) it was 0.9473; in assay [2] (40 uM), 1.289. In addition, the “CMV-LACZ in Myoblasts, value relative to DMSO” value was determined as 1.0500 in assay [3] (0.5 uM); 1.0071 in assay [3] (1 uM); 1.1287 in assay [3] (5 uM); 1.0990 in assay [3] (10 uM); 1.0817 in assay [3] (20 uM); 0.9217 in assay [3] (40 uM). The “CMV-LACZ in Myotubes, value relative to DMSO” value in assay [4] (0.5 uM) was 0.9582; in assay [4] (1 uM), 1.0073; in assay [4] (5 uM), 1.2348; in assay [4] (10 uM), 0.9661; in assay [4] (20 uM) it was 0.9750; in assay [4] (40 uM) it was 0.9340.
